# Data reported in US9023809B2, “Phenylalanine dipeptide derivatives, compositions and use thereof” (The Key Laboratory of Chemistry For Natural Products of …, priority 2008, dated 2015).
# Like-named read-outs stand apart in the source and are kept apart here. Marks after values point to notes of the source that are not given here. Where a SMILES comes first, the peptide text is derived from it. [ ]: non-standard residue; d: D form. The star is where a group is joined. Phe(4-NH2) = Nc1ccc(C[C@H](N)C(=O)O)cc1; Bz = O=C(c1ccccc1)*
# Tests used:
# 2.2.15 cells = test: Cytotoxicity (TC50, median toxic concentration) in 2.2.15 cells; format: cell-based
# Experimental: (§1) Cell control wells were simultaneously set up. […] IC50 and SI were calculated, respectively.
# DHBV-DNA = test: In vivo inhibition of DHBV-DNA in DHBV-infected ducklings; settings: intraperitoneal daily
# Description: Test compounds: the compound prepared in Example 75
# Test method: One-day-old ducklings were infected with serum containing DHBV positive virus (about 10^8-9 virions/ml). After a week, blood was collected and tested. The successfully transfected ducklings were randomly divided into three to five groups. Blank group, positive control group and treatment group(s) (one to three groups) were subjected to treatment tests. The treatment groups were divided into high, median and low dose groups. Intraperitoneal injection was carried out daily for ten days. Physiological saline was used to replace drugs in the blank group. Lamivudine was administered in the positive control group. […] Serum was separated and kept at −70° C. for tests. Duck hepatitis B virus surface antigen (DHBsAg) was assayed with DHBsAg dot molecular hybridization (DOT EIA). Duck hepatitis B virus deoxyribonucleic acid (DHBV DNA) contents in serum and duck livers were assayed with dot blot hybridization.
# HBV DNA replication = test: In vitro anti-HBV: inhibition of HBV DNA replication in 2.2.15 cells (dot blot); format: cell-based, hepatitis B virus; settings: day 8, dot blot; for IC50: Hepatitis B virus, 192 h
# Experimental: as §1
# HBsAg = test: In vitro anti-HBV: inhibition of HBsAg secretion in 2.2.15 cell supernatant (RIA); format: cell-based, hepatitis B virus; settings: for IC50: Hepatitis B virus, 192 h, read-out: Inhibition of HBsAg IC50
# Experimental: Test Principle: • 2.2.15 cells were used as a vector of hepatitis B virus. Samples were assayed for their abilities to inhibit […] to carry out DNA replication and to produce HBsAg and HBeAg.
# Test Materials and Method: • a. cell line: 2.2.15 cells; • b. treatment of samples: A sample was dissolved in DMSO in a suitable concentration right before use. The resulting solution was diluted in triple folds with culture media. There are eight dilutions. • c. positive control: Lamivudine (3TC) produced by Glaxo Wellcome; • d. reagents: radioimmunological kits of e antigen and s antigen of hepatitis B virus, α^32PdCTP; • e. test method: 2.2.15 cells were seeded in a 96-well microplate. After 36 hours, samples and positive controls in the above dilutions were added into the wells. Cell control wells were simultaneously set up. Culture media were replaced with fresh culture media containing samples in different dilutions, respectively, after 96 hours of addition of samples and positive controls. At the eighth day of addition of samples and positive controls, cell supernatants and 2.2.15 cells were harvested, respectively. Secretory volumes of HBsAg and HBeAg in the cell supernatants were assayed with the RIA method. The degree of HBV DNA replication in the cells was assayed with dot blot method. IC50 and SI were calculated, respectively.
# HBeAg = settings: 2.2.15 cells, day 8, RIA
# Experimental: Test Principle: • 2.2.15 cells were used as a vector of hepatitis B virus. Samples were assayed for their abilities to inhibit NBV to carry out DNA replication and to produce HBsAg and HBeAg.
# Test Materials and Method: • a. cell line: 2.2.15 cells; • b. treatment of samples: A sample was dissolved in DMSO in a suitable concentration right before use. The resulting solution was diluted in triple folds with culture media. […] After 36 hours, samples and positive controls in the above dilutions were added into the wells. Cell control wells were simultaneously set up. Culture media were replaced with fresh culture media containing samples in different dilutions, respectively, after 96 hours of addition of samples and positive controls. At the eighth day of addition of samples and positive controls, cell supernatants and 2.2.15 cells were harvested, respectively. Secretory volumes of HBsAg and HBeAg in the cell supernatants were assayed with the RIA method. The degree of HBV DNA replication in the cells was assayed with dot blot method. IC50 and SI were calculated, respectively.
# [1] = 50.0 mg/kg, 3rd Day of Withdrawal
# [2] = 12.5 mg/kg, 3rd Day of Withdrawal
# [3] = 25.0 mg/kg, 3rd Day of Withdrawal
structure (smiles),measurement,setting,value
"Nc1ccn([C@@H]2CS[C@H](CO)O2)c(=O)n1 [Example 3TC, Lamivudine, reference compound]",TC50,2.2.15 cells,786.00 µg/mL
same,Inhibition Ratio,DHBV-DNA; [1],0.3
same,OD Value,DHBV-DNA; [1],1.54
same,Inhibition Ratio,"DHBV-DNA; 50.0 mg/kg, 5th Day of Test",53.71^d
same,OD Value,"DHBV-DNA; 50.0 mg/kg, 5th Day of Test",0.73^b
same,Inhibition Ratio,"DHBV-DNA; 50.0 mg/kg, 10th Day of Test",57.22^d
same,OD Value,"DHBV-DNA; 50.0 mg/kg, 10th Day of Test",0.68^b
same,IC50,HBV DNA replication,18.9 µg/mL
"O=C(N[C@@H](Cc1ccccc1)C(=O)N[C@H](CO)Cc1ccccc1)c1ccc(CN2CCOCC2)cc1 [Example 51, N-{N-[4-(4-morpholinyl)methyl-benzoyl]-L-phenylalanyl}-L-phenylalaninol]",TC50,2.2.15 cells,78.52 µg/mL
same,IC50,HBV DNA replication,6.98 µg/mL
same,melting point,,183 to 184.5 °C
"CCOC(=O)c1ccc(C(=O)N[C@@H](Cc2ccccc2)C(=O)N[C@H](CO)Cc2ccccc2)cc1 [Example 52, N-[N-(4-ethoxycarbonyl-benzoyl)-L-phenylalanyl]-L-phenylalaninol]",TC50,2.2.15 cells,89.23 µg/mL
same,IC50,HBV DNA replication,24.2 µg/mL
same,melting point,,188 to 189.5 °C
"COC(=O)[C@H](Cc1ccccc1)NC(=O)[C@H](Cc1ccccc1)N(C(C)=O)C(=O)c1ccccc1 [Example 57, methyl N-(N-benzoyl-acetyl-L-phenylalanyl)-L-phenylalaninate]",TC50,2.2.15 cells,451.20 µg/mL
same,IC50,HBV DNA replication,59.5 µg/mL
same,melting point,,221 to 222 °C
"COC(=O)[C@H](Cc1ccc(OC(C)=O)cc1)NC(=O)[C@H](Cc1ccc(NC(C)=O)cc1)NC(=O)c1ccc(C)cc1 [Example 68, methyl N-[N-(4-methyl-benzoyl)-4-acetamido-L-phenylalanyl]-O-acetyl-L-tyrosinate]",TC50,2.2.15 cells,388.03 µg/mL
same,IC50,HBV DNA replication,13.1 µg/mL
same,melting point,,222 to 223 °C
"CCCCOc1ccc(C[C@H](NC(=O)[C@H](Cc2ccccc2)NC(=O)c2ccccc2)C(=O)OC)cc1 [Example 72, methyl N-(N-benzoyl-L-phenylalanyl)-O-n-butyl-L-tyrosinate]",TC50,2.2.15 cells,577.35 µg/mL
same,IC50,HBV DNA replication,87.5 µg/mL
same,melting point,,177 to 178 °C
"CCCCOc1ccc(C[C@H](NC(=O)[C@H](Cc2ccccc2)NC(=O)c2ccccc2)C(=O)[O-])cc1.[Na+] [Example 74, N-(N-benzoyl-L-phenylalanyl)-O-n-butyl-L-tyrosine sodium salt]",IC50,"HBsAg; 2.2.15 cells, day 8, RIA",25.2 µg/mL
same,TC50,2.2.15 cells,>500 µg/mL
same,IC50,HBV DNA replication,33 µg/mL
"CN(C)CCOc1ccc(C[C@H](NC(=O)c2ccccc2)C(=O)N[C@H](CO)Cc2ccccc2)cc1.Cl [Example 75, N-[N-berizoyl-O-(2-dimethylamino-ethyl)-L-tyrosyl]-L-phenylalaninol hydrochloride]",Inhibition of HBsAg IC50,"HBsAg; 2.2.15 cells, day 8, RIA",33.51 µg/mL
same,TC50,2.2.15 cells,388.03 µg/mL
same,Inhibition Ratio,DHBV-DNA; [2],9.23
same,OD Value,DHBV-DNA; [2],1.09
same,Inhibition Ratio,"DHBV-DNA; 12.5 mg/kg, 5th Day of Test",12.87
same,OD Value,"DHBV-DNA; 12.5 mg/kg, 5th Day of Test",1.11
same,Inhibition Ratio,"DHBV-DNA; 12.5 mg/kg, 10th Day of Test",12.92^a
same,OD Value,"DHBV-DNA; 12.5 mg/kg, 10th Day of Test",1.11^a
same,Inhibition Ratio,DHBV-DNA; [3],38.12^d
same,OD Value,DHBV-DNA; [3],0.87^b
same,Inhibition Ratio,"DHBV-DNA; 25.0 mg/kg, 5th Day of Test",18.67^c
same,OD Value,"DHBV-DNA; 25.0 mg/kg, 5th Day of Test",1.15^a
same,Inhibition Ratio,"DHBV-DNA; 25.0 mg/kg, 10th Day of Test",32.91^d
same,OD Value,"DHBV-DNA; 25.0 mg/kg, 10th Day of Test",0.95^b
same,Inhibition Ratio,DHBV-DNA; [1],42.30^d
same,OD Value,DHBV-DNA; [1],0.83^b
same,Inhibition Ratio,"DHBV-DNA; 50.0 mg/kg, 5th Day of Test",36.43^c
same,OD Value,"DHBV-DNA; 50.0 mg/kg, 5th Day of Test",0.94^a
same,Inhibition Ratio,"DHBV-DNA; 50.0 mg/kg, 10th Day of Test",54.62^d
same,OD Value,"DHBV-DNA; 50.0 mg/kg, 10th Day of Test",0.73^b
same,Inhibition of HBeAg IC50,HBeAg,13.51 µg/mL
same,Inhibition of DNA Replication IC50,HBV DNA replication,2.41 µg/mL
"O=C(N[C@@H](Cc1ccc(OCO)cc1)C(=O)N[C@H](CO)Cc1ccccc1)c1ccccc1.[Na] [Example 80, N-[N-benzoyl-O-hydroxymethyl-L-tyrosyl]-L-phenylalaninol sodium salt]",IC50,HBsAg,150 µg/mL
same,TC50,2.2.15 cells,388.03 µg/mL
same,IC50,HBV DNA replication,27.3 µg/mL
"CC(=O)Nc1ccc(C[C@H](NC(=O)c2ccccc2)C(=O)N[C@@H](Cc2ccccc2)C(=O)O)cc1 [Example 87, N-(N-benzoyl-4-acetamido-L-phenylalanyl)-L-phenylalanine] (Bz-[Phe(4-NH2)](Ac)-Phe-OH)",TC50,2.2.15 cells,43.11 µg/mL
same,IC50,HBV DNA replication,1.81 µg/mL
same,melting point,,233.5 to 235.5 °C
